One test addresses Activin receptor type-2B (Homo sapiens, UniProt Q13705).
Test [1] deals with Tyrosine-protein kinase BTK (Homo sapiens, UniProt Q06187).
Test [2] concerns the target Cyclin-dependent kinase 13 (Homo sapiens, UniProt Q14004).
For test [3], the target named is T1, Serine/threonine-protein kinase Chk1 (Homo sapiens, UniProt O14757).
T1 sequence (O14757 whole entry): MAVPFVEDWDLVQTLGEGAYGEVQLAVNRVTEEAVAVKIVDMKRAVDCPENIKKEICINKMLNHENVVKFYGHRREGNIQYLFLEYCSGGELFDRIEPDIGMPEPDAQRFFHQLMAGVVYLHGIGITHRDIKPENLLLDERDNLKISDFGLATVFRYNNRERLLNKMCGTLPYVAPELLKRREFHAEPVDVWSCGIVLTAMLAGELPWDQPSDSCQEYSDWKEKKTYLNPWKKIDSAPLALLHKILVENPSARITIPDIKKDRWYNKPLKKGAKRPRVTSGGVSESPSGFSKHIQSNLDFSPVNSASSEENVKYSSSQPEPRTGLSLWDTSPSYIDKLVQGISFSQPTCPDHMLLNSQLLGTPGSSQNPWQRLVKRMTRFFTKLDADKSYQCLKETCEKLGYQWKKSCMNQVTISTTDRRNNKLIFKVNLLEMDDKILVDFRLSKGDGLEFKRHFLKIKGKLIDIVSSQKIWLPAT

A further test concerns the target Ephrin type-A receptor 2 (Homo sapiens, UniProt P29317).
The target of test [4] is T2, RNA cytidine acetyltransferase (Homo sapiens, UniProt Q9H0A0).
T2 sequence (Q9H0A0 whole entry): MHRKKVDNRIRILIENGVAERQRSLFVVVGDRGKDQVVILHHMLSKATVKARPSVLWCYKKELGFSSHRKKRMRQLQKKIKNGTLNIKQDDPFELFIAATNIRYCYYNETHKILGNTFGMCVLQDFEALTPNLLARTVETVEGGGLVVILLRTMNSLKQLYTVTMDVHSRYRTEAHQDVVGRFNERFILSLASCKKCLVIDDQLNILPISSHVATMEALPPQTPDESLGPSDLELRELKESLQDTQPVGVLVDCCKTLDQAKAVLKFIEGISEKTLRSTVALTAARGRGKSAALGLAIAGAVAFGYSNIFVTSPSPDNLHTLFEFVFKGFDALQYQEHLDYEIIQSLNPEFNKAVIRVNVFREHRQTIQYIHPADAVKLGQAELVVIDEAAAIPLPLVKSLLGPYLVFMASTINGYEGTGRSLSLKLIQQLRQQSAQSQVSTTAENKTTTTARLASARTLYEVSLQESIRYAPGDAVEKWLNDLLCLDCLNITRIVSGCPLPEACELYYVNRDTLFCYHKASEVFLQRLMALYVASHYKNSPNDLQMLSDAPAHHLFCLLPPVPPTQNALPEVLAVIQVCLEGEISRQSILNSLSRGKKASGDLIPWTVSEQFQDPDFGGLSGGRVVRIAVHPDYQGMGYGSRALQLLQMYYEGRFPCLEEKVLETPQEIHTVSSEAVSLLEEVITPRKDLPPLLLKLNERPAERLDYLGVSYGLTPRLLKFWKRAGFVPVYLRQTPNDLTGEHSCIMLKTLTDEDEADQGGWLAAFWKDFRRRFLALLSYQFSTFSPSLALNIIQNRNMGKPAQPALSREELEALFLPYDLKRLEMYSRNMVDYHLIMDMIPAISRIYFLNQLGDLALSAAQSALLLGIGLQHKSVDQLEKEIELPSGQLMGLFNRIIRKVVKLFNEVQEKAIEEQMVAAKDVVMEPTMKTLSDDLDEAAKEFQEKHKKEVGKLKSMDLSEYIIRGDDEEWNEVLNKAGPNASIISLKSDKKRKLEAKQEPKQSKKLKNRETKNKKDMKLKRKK

The target of test [5] is Protein kinase C beta type (Homo sapiens, UniProt P05771).
The target of test [6] is T3, Serine/threonine-protein kinase 3 (Homo sapiens, UniProt Q13188).
T3 sequence (Q13188 whole entry): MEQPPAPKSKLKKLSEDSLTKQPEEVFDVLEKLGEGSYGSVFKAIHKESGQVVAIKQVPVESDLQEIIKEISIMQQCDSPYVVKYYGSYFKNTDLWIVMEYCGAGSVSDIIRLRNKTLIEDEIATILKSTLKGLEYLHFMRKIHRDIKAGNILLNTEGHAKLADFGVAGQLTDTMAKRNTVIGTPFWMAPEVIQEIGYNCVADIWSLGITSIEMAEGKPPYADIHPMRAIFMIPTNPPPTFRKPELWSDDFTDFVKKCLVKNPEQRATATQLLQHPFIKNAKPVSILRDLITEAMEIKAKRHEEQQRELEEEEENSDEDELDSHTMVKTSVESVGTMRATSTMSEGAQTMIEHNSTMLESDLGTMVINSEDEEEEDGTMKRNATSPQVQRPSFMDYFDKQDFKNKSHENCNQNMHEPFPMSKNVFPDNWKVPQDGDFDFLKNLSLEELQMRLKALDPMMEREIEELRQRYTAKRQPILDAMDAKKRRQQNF

The target in test [7] is DNA topoisomerase 2-alpha (Homo sapiens, UniProt P11388).

18 molecules from ChEMBL document CHEMBL3991601, “The target landscape of clinical kinase drugs” (Science, 2017) can be followed below.

One may read the Kd as the constant that tells how readily two partners part at equilibrium.

The source made the active and inactive calls. For most assays here, no stated cut-off is given here; in the data, actives have a measured Kd and inactives only a lower limit.

Chain of Tyrosine-protein kinase BTK (Q06187 whole entry): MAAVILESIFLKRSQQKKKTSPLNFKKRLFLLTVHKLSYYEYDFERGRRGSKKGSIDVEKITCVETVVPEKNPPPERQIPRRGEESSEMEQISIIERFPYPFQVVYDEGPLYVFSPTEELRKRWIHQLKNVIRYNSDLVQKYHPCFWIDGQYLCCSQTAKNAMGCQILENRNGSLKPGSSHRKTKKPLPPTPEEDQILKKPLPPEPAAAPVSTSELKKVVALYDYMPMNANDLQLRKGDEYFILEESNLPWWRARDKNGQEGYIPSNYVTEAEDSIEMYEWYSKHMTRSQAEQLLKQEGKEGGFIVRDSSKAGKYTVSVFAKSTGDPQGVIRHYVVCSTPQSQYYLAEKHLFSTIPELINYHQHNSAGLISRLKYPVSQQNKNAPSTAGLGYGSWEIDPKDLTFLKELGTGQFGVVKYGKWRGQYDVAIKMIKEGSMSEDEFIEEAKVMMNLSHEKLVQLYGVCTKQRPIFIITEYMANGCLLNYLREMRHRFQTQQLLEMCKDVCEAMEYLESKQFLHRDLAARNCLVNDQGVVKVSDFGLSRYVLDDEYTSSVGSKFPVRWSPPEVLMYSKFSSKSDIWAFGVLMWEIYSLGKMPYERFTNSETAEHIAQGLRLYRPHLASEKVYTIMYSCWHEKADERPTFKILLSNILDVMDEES
Chain of Activin receptor type-2B (Q13705 whole entry): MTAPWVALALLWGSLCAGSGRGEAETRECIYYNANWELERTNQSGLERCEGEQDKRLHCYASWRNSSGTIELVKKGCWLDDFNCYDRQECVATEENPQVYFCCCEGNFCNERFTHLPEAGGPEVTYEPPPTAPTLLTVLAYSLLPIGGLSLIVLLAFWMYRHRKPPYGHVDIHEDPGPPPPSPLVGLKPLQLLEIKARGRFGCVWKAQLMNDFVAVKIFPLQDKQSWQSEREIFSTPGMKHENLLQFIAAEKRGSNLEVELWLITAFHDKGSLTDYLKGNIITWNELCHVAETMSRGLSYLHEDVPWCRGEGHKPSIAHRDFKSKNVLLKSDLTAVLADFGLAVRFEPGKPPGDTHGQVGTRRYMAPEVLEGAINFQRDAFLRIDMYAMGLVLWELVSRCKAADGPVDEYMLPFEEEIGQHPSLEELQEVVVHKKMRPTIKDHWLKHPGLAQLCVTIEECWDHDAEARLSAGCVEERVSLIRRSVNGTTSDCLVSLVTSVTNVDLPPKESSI
Chain of DNA topoisomerase 2-alpha (P11388 whole entry): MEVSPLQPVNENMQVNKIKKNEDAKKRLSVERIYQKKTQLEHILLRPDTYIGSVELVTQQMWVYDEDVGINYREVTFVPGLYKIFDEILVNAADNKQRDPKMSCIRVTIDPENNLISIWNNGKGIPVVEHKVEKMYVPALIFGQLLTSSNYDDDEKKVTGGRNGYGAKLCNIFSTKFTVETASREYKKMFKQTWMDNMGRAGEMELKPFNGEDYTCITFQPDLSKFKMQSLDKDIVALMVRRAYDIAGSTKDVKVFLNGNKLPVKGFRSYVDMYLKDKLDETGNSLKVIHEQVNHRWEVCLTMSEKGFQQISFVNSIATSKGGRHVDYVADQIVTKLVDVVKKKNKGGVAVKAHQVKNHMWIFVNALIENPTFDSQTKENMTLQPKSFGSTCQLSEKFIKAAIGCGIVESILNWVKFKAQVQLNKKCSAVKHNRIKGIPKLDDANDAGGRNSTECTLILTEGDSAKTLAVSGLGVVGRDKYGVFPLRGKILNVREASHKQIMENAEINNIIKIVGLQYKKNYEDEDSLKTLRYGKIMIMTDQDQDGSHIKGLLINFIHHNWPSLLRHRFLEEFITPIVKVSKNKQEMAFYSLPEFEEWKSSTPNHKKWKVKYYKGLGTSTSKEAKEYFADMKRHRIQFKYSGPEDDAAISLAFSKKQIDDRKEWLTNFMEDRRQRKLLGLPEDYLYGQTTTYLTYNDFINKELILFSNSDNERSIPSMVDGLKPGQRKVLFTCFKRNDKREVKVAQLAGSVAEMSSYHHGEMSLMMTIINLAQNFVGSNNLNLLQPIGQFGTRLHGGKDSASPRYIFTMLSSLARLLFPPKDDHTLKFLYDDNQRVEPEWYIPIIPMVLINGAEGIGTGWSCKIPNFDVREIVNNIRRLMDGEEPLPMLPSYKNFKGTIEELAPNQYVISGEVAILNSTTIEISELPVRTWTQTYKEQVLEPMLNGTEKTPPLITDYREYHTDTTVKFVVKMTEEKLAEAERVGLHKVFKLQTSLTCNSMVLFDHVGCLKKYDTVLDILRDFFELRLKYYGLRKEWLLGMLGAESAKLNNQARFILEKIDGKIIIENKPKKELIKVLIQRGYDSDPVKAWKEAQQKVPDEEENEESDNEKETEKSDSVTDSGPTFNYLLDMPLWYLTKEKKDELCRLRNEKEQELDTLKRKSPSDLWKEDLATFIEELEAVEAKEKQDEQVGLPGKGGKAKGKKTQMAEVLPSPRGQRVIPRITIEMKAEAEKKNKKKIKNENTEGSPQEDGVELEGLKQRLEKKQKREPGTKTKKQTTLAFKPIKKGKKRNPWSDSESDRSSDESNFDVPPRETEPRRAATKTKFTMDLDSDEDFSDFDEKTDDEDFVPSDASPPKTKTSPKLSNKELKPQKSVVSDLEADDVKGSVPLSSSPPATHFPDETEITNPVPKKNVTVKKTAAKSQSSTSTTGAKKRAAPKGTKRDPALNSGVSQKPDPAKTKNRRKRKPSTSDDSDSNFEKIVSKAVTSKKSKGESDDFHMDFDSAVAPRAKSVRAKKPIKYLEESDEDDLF
Chain of Protein kinase C beta type (P05771 whole entry): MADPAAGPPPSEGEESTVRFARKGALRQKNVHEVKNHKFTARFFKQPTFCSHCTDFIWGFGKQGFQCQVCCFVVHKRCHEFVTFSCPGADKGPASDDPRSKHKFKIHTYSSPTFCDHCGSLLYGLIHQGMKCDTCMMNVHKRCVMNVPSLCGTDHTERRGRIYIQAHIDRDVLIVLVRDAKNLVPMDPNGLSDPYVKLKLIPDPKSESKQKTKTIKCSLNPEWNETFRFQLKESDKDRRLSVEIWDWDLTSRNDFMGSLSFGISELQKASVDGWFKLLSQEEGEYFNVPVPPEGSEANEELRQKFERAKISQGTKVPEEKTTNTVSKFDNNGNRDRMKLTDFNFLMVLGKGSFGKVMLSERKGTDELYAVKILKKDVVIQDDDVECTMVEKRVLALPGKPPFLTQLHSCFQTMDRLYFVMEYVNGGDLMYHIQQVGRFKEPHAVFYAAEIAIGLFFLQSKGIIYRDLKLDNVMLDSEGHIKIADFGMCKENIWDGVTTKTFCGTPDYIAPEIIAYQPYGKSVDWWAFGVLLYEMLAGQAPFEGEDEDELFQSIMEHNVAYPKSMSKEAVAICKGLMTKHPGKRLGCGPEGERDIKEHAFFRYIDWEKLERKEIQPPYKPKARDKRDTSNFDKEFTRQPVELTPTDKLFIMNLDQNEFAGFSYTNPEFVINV
Chain of Cyclin-dependent kinase 13 (Q14004 whole entry): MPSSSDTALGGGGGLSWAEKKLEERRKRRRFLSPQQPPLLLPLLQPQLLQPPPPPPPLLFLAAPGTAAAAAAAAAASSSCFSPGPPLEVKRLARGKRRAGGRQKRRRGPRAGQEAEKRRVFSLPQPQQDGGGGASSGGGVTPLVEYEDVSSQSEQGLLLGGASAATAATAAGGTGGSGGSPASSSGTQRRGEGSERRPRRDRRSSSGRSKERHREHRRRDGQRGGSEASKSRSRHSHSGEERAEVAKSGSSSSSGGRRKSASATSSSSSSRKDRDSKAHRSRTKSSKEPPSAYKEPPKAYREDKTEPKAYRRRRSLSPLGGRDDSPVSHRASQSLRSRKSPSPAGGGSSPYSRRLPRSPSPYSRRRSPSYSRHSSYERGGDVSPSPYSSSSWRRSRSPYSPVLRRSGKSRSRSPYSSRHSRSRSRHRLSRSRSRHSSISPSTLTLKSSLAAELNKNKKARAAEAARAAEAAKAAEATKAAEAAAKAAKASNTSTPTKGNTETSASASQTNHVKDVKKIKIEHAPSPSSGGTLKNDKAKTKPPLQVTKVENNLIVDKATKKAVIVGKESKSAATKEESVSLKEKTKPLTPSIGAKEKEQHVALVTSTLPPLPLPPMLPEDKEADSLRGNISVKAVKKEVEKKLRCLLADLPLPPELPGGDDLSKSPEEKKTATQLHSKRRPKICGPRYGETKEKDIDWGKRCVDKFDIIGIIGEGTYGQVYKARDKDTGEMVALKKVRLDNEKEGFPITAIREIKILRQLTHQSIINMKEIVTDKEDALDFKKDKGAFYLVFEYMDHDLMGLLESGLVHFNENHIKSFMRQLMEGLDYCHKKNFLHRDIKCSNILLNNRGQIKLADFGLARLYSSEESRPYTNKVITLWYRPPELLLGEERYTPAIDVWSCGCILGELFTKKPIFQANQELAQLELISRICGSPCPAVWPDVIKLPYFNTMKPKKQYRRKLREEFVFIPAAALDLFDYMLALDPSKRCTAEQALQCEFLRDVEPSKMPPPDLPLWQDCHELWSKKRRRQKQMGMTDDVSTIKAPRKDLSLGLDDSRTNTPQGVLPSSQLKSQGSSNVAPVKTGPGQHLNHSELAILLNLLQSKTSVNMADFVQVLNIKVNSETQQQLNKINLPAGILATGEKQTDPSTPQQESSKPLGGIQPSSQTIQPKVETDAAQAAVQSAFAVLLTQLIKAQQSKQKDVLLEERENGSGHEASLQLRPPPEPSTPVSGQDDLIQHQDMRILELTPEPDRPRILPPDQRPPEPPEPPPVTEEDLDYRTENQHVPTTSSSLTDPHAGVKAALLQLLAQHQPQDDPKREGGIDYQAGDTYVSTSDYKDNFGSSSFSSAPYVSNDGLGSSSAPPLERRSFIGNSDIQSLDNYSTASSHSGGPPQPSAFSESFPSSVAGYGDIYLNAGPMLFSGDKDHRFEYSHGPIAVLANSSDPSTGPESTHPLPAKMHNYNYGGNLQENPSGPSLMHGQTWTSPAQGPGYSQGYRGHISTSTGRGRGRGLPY

As to `Cn1cc(-c2ccc(F)c(C(F)(F)F)c2)nc1C1CCN(c2ncnc3[nH]ncc23)CC1` [LY-2584702], the Kd (on Activin receptor type-2B; in test [1]; in test [2]; in [3]; on Ephrin type-A receptor 2; in test [4]) was > 30 µM (inactive) in each case. Also, the Kd in test [5] and in test [6] was > 30 µM (inactive) each time.
Regarding `OCCn1cc(-c2cnc3nnn(Cc4ccc5ncccc5c4)c3n2)cn1` [PF-04217903], the Kd (at Activin receptor type-2B; in [2]; on Ephrin type-A receptor 2; in test [4]; in test [5]; in test [6]) was > 30 µM (inactive) each time. Moreover, in test [7], the Kd is > 30 µM (inactive).
Take `CNC(=O)CN1CCC(Oc2cc3c(Nc4cccc(Cl)c4F)ncnc3cc2OC)CC1` [SAPITINIB]: the Kd at Activin receptor type-2B is > 30 µM (inactive); in test [1] it was > 30 µM (inactive); in test [2] it was > 30 µM (inactive); in [3], > 30 µM (inactive); on Ephrin type-A receptor 2 it was 8.2 µM; in [4] it was > 30 µM (inactive). The Kd in test [5] and in [6] was > 30 µM (inactive) throughout.
Turning to `CCn1c(-c2nonc2N)nc2c(C#CC(C)(C)O)ncc(OC[C@H]3CCCNC3)c21` [GSK-690693], the Kd in [4] was > 30 µM (inactive); in [5], 0.31 µM (active); in test [7], > 30 µM (inactive).
Turning to `Cc1cc(Nc2cc(N3CCN(C)CC3)nc(/C=C/c3ccccc3)n2)n[nH]1` [ENMD-2076], the Kd (on Activin receptor type-2B; in test [1]; in test [2]; in test [4]; in test [5]; in test [7]) was > 30 µM (inactive) each time.
Regarding `Nc1nc(N)c2nc(-c3cccc(O)c3)c(-c3cccc(O)c3)nc2n1` [TG100-115], the Kd in [4], in test [5] and in test [7] was > 30 µM (inactive) throughout.
Take `CN1CCN(c2ccc3nc(-c4c(N)c5c(F)cccc5[nH]c4=O)[nH]c3c2)CC1` [DOVITINIB]: the Kd in test [4] and in test [5] was > 30 µM (inactive) throughout.
In the case of `Cc1cc2c(F)c(Oc3ncnn4cc(OC[C@@H](C)OC(=O)[C@H](C)N)c(C)c34)ccc2[nH]1` [BRIVANIB ALANINATE], the Kd (on Activin receptor type-2B; in test [1]; in test [2]; in test [3]; at Ephrin type-A receptor 2; in test [4]) was > 30 µM (inactive) in each case. In addition, the Kd in [5] and in test [6] was > 30 µM (inactive) in each case.
Turning to `O=C(Nc1cccc(Cl)c1)Nc1ncc(CCNc2ncnc3ccsc23)s1` [SNS-314], the Kd (on Activin receptor type-2B; in test [4]; in [5]; in test [7]) was > 30 µM (inactive) in each case.
In the case of `C1=C/COCc2cc(ccc2OCCN2CCCC2)Nc2nccc(n2)-c2cccc(c2)COC/1` [PACRITINIB], the Kd (on Activin receptor type-2B; in [1]; in test [2]; in test [3]; on Ephrin type-A receptor 2; in test [4]) was > 30 µM (inactive) in each case. Further, the Kd in test [5] is 7.24 µM (active); in test [6] it was > 30 µM (inactive).
In the case of `C[C@@H]1CN(Cc2ccc(F)cc2)[C@@H](C)CN1C(=O)c1cc2c(C(=O)C(=O)N(C)C)cn(C)c2cc1Cl` [TALMAPIMOD], the Kd (at Activin receptor type-2B; in test [1]; in test [2]; in [3]; at Ephrin type-A receptor 2; in test [4]) was > 30 µM (inactive) throughout. For the same molecule, the Kd in test [5] and in [6] was > 30 µM (inactive) throughout.
For `CCc1cnn2c(NCc3ccc[n+]([O-])c3)cc(N3CCCC[C@H]3CCO)nc12` [DINACICLIB], the Kd is > 30 µM (inactive) at Activin receptor type-2B; 0.021 µM (active) in test [2]; > 30 µM (inactive) on Ephrin type-A receptor 2; > 30 µM (inactive) in test [4]; > 30 µM (inactive) in [5]; > 30 µM (inactive) in test [6]. The Kd in test [7] is > 30 µM (inactive).
`CN1CCC(COc2cnc(-c3cccc(Cn4nc(-c5cccc(C#N)c5)ccc4=O)c3)nc2)CC1` [TEPOTINIB]: the Kd (on Activin receptor type-2B; in test [1]; in [2]; at Ephrin type-A receptor 2; in test [4]; in test [5]) was > 30 µM (inactive) throughout. Moreover, in test [6], the Kd was > 30 µM (inactive).
Turning to `COc1cc2nccc(Oc3ccc(NC(=O)NC4CC4)c(Cl)c3)c2cc1C(N)=O` [LENVATINIB], the Kd (on Activin receptor type-2B; in test [2]; in test [3]; at Ephrin type-A receptor 2; in [4]; in [5]) was > 30 µM (inactive) each time. Besides, the Kd in test [6] and in test [7] was > 30 µM (inactive) each time.
In the case of `CNC(=O)c1ccc(C)c(-n2c(C)cc(OCc3ccc(F)cc3F)c(Br)c2=O)c1` [PH-797804], the Kd (at Activin receptor type-2B; in test [1]; in [2]; in test [3]; on Ephrin type-A receptor 2; in test [4]) was > 30 µM (inactive) each time. For the same molecule, the Kd in [5] and in [6] was > 30 µM (inactive) throughout.
For the molecule `Cc1nc(N)sc1-c1ccnc(Nc2ccc(N3CCOCC3)cc2)n1` [CYC-116], the Kd (at Activin receptor type-2B; in test [4]; in test [5]; in test [7]) was > 30 µM (inactive) in each case.
Consider `Cc1ccc(NC(=O)c2ccc(CN3CC[C@H](N(C)C)C3)c(C(F)(F)F)c2)cc1Nc1nccc(-c2cncnc2)n1` [BAFETINIB], for which the Kd is > 30 µM (inactive) at Activin receptor type-2B; > 30 µM (inactive) in test [1]; > 30 µM (inactive) in test [2]; > 30 µM (inactive) in test [3]; 0.09 µM (active) on Ephrin type-A receptor 2; > 30 µM (inactive) in test [4]. Further, the Kd in test [5] and in [6] was > 30 µM (inactive) each time.
As to `Cc1cn(-c2cc(NC(=O)c3ccc(C)c(Nc4nccc(-c5cccnc5)n4)c3)cc(C(F)(F)F)c2)cn1` [NILOTINIB], the Kd in test [4], in test [5] and in test [7] was > 30 µM (inactive) each time.
